Test results reported in US7390910B2, “Compounds for treating tumors” (priority 2003, dated 2008).
“And” between values parts separate entries of the source, which are not always exact repeats. Equal entries are not always repeated.

Columns and labels:
NCl-H1299 = test: Cell survival assay (SRB), NCl-H1299; assay type: cell-based; conditions: NCl-H1299 cells
Method: (§1) Cell Survival Assay: Standard Pharmacological Test Procedure. […] Compounds are incubated with cells for 3 days.

KB85 = test: cells; assay type: cell-based; conditions: 3 days, SRB
Method: as §1

KBV1 = test: cells; assay type: cell-based; conditions: for IC50: 3 days, SRB
Method: as §1

KB cells = test: cells; assay type: cell-based; conditions: 3 days, SRB
Method: as §1

HCT-15 = test: Cell survival assay (SRB), HCT-15; assay type: cell-based; conditions: HCT-15 cells
Method: as §1

[1] = system: bovine microtubule-associated protein (MAP)-rich tubulin; assay type: biochemical; conditions: 0.3 uM
Outline: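 This in vitro polymerization assay used bovine tubulin rich in microtubule-associated proteins, prepared at 1.5 mg/ml in GPEM (PEM buffer containing 1 mM GTP) and cleared by a 12,000×g spin. Tubulin solution (100 μl/well) was dispensed onto duplicate 10 μl test samples. Control wells held 0.3% DMSO. A SpectraMax Plus reader recorded turbidity at 340 nm every minute over 60 min at 24° C.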

LOX = test: Cell survival assay (SRB), LOX; assay type: cell-based, human; conditions: LOX cells
Method: as §1

Colo205 = test: Cell survival assay (SRB), Colo205; assay type: cell-based; conditions: Homo sapiens, COLO 205, 72 h, Colo205 cells, 3 days
Method: as §1

A375 = test: Cell survival assay (SRB), A375; assay type: cell-based; conditions: A375 cells
Method: as §1

[2] = system: Human Melanoma Carcinoma Lox; test: Growth of tumors in nude mice (LOX xenograft); assay type: in vivo, athymic nu/nu female mice
Source text: Growth of Tumors in Nude Mice. […] A p-value ≦0.05 indicates a statistically significant reduction in relative tumor growth of treated group compared to that of the vehicle control group.

S1 = test: Cell survival assay (SRB), S1; assay type: cell-based; conditions: S1 cells
Method: as §1

S1-M1 = test: Cell survival assay (SRB), S1-M1; assay type: cell-based; conditions: S1-M1 cells
Method: as §1

KM20 = test: Cell survival assay (SRB), KM20; assay type: cell-based; conditions: KM20 cells
Method: as §1

| Compound | IC50 (NCl-H1299) | IC50 (KB85; 72 h) | IC50 (KBV1; Homo sapiens, KB-V1, 72 h) | IC50 (KB cells; Homo sapiens, KB, 72 h) | IC50 (HCT-15; Homo sapiens) | Tubulin Polym. % inhibition at 0.3 uM [1] | IC50 (LOX; Homo sapiens) | IC50 (Colo205) | also measured |
| --- | --- | --- | --- | --- | --- | --- | --- | --- | --- |
| CN[C@H](C(=O)N[C@H](C(=O)N(C)[C@H](/C=C(\C)C(C)=O)C(C)C)C(C)(C)C)C(C)(C)c1ccccc1 [Example 84, N,β,β-trimethyl-L-phenylalanyl-N^1-[(1S,2E)-1-isopropyl-3-methyl-4-oxo-2-pentenyl]-N^1,3-dimethyl-L-valinamide] | 832 nM | 664 nM | 2360 nM | 403 nM | 1260 nM | 69% | 550 nM | 180 nM |  |
| C/C(=C\[C@H](C(C)C)N(C)C(=O)[C@@H](NC(=O)[C@@H](C)C(C)(C)c1ccccc1)C(C)(C)C)C(=O)O [Example 92, (E,4S)-4-[((2S)-2-{[(2S)-2,3-dimethyl-3-phenylbutanoyl]amino}-3,3-dimethylbutanoyl)(methyl)amino]-2,5-dimethyl-2-hexenoic acid] | 1200 nM | 990 nM |  | 861 nM | 1380 nM | 94% | 1070 nM |  | inhibition at 3 µM (KBV1; Homo sapiens, KB-V1, 3000 nM): 30% |
| (2E,4S)-2,5-dimethyl-4-(methyl{3-methyl-N-[(2S)-3-methyl-2-(methylamino)-3-phenylbutyl]-L-valyl}amino)-2-hexenoic acid [Example 87] | 295 nM |  |  |  |  | 28% |  |  | IC50 (KB85): 312 nM; KBV1 % inhibition @ 3000 nM (KBV1): 14%(2); IC50 (KB cells): 104 nM; IC50 (HCT-15): 759 nM; IC50 (LOX): 151 nM |
| CN[C@H](C(=O)N[C@H](C(=O)N(C)[C@H](/C=C(\C)C(=O)NN)C(C)C)C(C)(C)C)C(C)(C)c1ccccc1 [Example 109, (2S)-N-[(1S,2E)-4-hydrazino-1-isopropyl-3-methyl-4-oxo-2-butenyl]-N,3,3-trimethyl -{[(2S)-3-methyl-2-(methylamino)-3-phenylbutanoyl]amino}butanamide] |  |  |  |  |  |  |  |  | IC50 (KB85): 227 nM; KBV1 % inhibition @ 3000 nM (KBV1): 23%; IC50 (KBV1): 2080 nM; IC50 (KB cells): 65 nM; IC50 (A375): 19 nM; % T/C on day 7 ([2]; 3 mg/kg IV on days 1, 5, 9): 24%; % T/C on day 13 ([2]; 3 mg/kg IV on days 1, 5, 9, day 13): 8% |
| CN[C@H](C(=O)N[C@H](C(=O)N(C)[C@H](/C=C(\C)C(=O)N1CCOCC1)C(C)C)C(C)(C)C)C(C)(C)c1ccccc1 [Example 27, (2S)-N-[(1S,2E)-1-isopropyl-3-methyl-4-(4-morpholinyl)-4-oxo-2-butenyl]-N,3,3-trimethyl-2-{[(2S)-3-methyl-2-(methylamino)-3-phenylbutanoyl]amino}butanamide] | 38 nM | 73.5 nM | 1300 nM | 43.5 nM | 26 nM | 69% | 50 nM | 23 nM | IC50 (S1): 657 nM; IC50 (S1-M1): 336 nM; % T/C on day 7 ([2]; 10 mg/kg IV on days 1, 5, 9): 13% and 11%; % T/C on day 12 ([2]; 10 mg/kg IV on days 1, 5, 9, day 12): 2%; % T/C on day 14 ([2]; 10 mg/kg IV on days 1, 5, 9): 2% |
| CN[C@H](C(=O)N[C@H](C(=O)N(C)[C@H](/C=C(\C)C=O)C(C)C)C(C)(C)C)C(C)(C)c1ccccc1 [Example 82, N,β,β-trimethyl-L-phenylalanyl-N^1-[(1S,2E)-1-isopropyl-3-methyl-4-oxo-2-butenyl]-N^1,3-dimethyl-L-valinamide] | 1570 nM | 1330 nM | 1940 nM | 713 nM | 1500 nM | 51% and 47% | 630 nM | 5.1 nM | IC50 (KBV1): > 3000 nM; IC50 (A375; Homo sapiens, A-375): 663 nM; IC50 (KM20): 4.6 nM |
| CN[C@H](C(=O)N[C@H](C(=O)N(C)[C@H](/C=C(\C)C(=O)N1CCC[C@H]1C(=O)OC)C(C)C)C(C)(C)C)C(C)(C)c1ccccc1 [Example 35, N,β,β-trimethyl-L-phenylalanyl-N^1-{(1S,2E)-4-[(2S)-2-(methoxycarbonyl)pyrrolidin-1-yl]-1-isopropyl-3-methyl-4-oxobut-2-enyl}-N^1,3-dimethyl-L-valinamide] |  | 7.3 nM | 291 nM | 1.5 nM |  | 82% |  |  | IC50 (S1): 9 nM; IC50 (S1-M1): 11 nM; % T/C on day 7 ([2]; 2 mg/kg IV on days 1, 5, 9): 5%; % T/C on day 14 ([2]; 2 mg/kg IV on days 1, 5, 9): 1% |
